Results: patent publication US20230028293A1, “MULTIPLE MYELOMA COMBINATION THERAPIES BASED ON PROTEIN TRANSLATION INHIBITORS AND IMMUNOMODULATORS” (The Regents of the University of Colorado, a body corporate, priority 2019, published 2023)
pEC50: −log10 of the molar value. Entries after “also recorded” stand apart in the source; their conditions may differ.

Columns and labels:
c-MYC = test: Quantitative flow cytometry of c-MYC antigen density; format: cell-based; conditions: 24 h treatment
[1] = system: primary MM cells from patient bone marrow aspirates; test: cells
Protocol: The effect of omacetaxine in primary patient samples was tested by incubating marrow mononuclear cells (MNCs) from patient bone marrow aspirates for 48 h and measuring the number of surviving MM cells by multiparameter flow cytometry.
De-identified primary myeloma samples were thawed in a 37° C. water bath and then incubated with 100 μg DNase I (Sigma-Aldrich) for 90 sec. Samples were washed twice with 10 mL Dulbecco's Phosphate Buffered Saline without calcium and magnesium (DPBS). Cells were cultured in RPMI1640 medium containing L-glutamine with 10% FBS and 100 U/mL penicillin, 100 ug/mL streptomycin (Thermo Fisher Scientific), and 2 ng/mL interleukin 6 IL-6 (PreproTech) at 37° C. for 2 h. Cells were then transferred to 96-well plates at […] cells/mL (90,000 MNCs per well) and treated for 48 h. Stock solutions of drug were prepared at 10 mM in dimethylsulfoxide (DMSO) and stored at −20° C. until use.
After 48 h treatment, the primary samples were washed in 1× cold DPBS and re-suspended in BD Brilliant Stain Buffer (BD Biosciences, San Jose Calif.) in a 96-well V-bottom plate. Cells were treated with FcR Blocking Reagent (Miltenyi Biotec, San Diego Calif.) for 5 min and then surface stained with anti-CD19-BV786 anti-CD45-BV510, anti-CD38-PerCP-Cy5.5, anti-CD138-BV421, and anti-CD319-Alexa647 or anti-CD46-Alexa647 antibodies for 10 min on ice. Intracellular staining with anti-kappa-BV605 and anti-lambda-PE light chains was performed after paraformaldehyde fixation and permeabilization. All flow cytometry antibodies were purchased from BD Biosciences. After staining, samples were washed and resuspended with 100 μl DPBS containing 2% FBS (FACS buffer). Viability staining was done using the LIVE/DEAD Fixable Near-IR Dead Cell Stain Kit (Invitrogen, Carlsbad Calif.) by adding 1 μl of 10-fold diluted stain to each well. Flow cytometry data was collected using a BD FACSCelesta Multicolor Cell Analyzer (BD Biosciences, San Jose Calif.) equipped with a HTS. For each sample a fixed volume of 175 μL was collected by the HTS. Flow cytometry data analysis was completed using FlowJo software (FlowJo LLC, Ashland Oreg.). Myeloma populations were analyzed by gating CD19− CD45+/−CD38+ CD138+ based on the cells expressing clonal light chain restriction in each sample.

[2] = system: bone marrow plasma cells from normal donors; test: Sensitivity of healthy donor bone marrow plasma cells; format: cell-based; conditions: 50 nM, 48 h incubation
MM cell lines = test: Two-drug combination matrix in MM cell lines, ZIP synergy; format: cell-based
[3] = system: luc-MM1.S cells in NSG mice; test: In vivo protein translation (puromycin incorporation) in luc-MM1.S xenograft; conditions: 1, 2 or 3 mg/kg IP; greatest effect at 3 mg/kg
Protocol: To extend the findings to an in vivo model, the effects of omacetaxine were examined using a firefly luciferase-expressing myeloma cell line, MM1.S (luc-MM1.S) to generate xenografts in NSG mice. The pharmacodynamics of omacetaxine were studied in this model. Mice were injected with luc-MM1.S cells and allowed to establish disease, followed by treatment with 1, 2, or 3 mg/kg omacetaxine, or with the vehicle control by intraperitoneal (IP) injection, followed by puromycin injection one hour later, and sacrificed 1.5 hours later, with bone marrow harvest and […] incorporation by flow cytometry (FIG. 9A).
Protein synthesis levels were determined in vitro utilizing the puromycin analog O-propargyl-puromycin (OP-Puro) in the protein synthesis assay kit (Cayman Chemical) according to manufacturer instructions. […]
For in vivo assessment of omacetaxine, 5×10^5 MM1.S cells stably expressing firefly luciferase were injected intravenously into NSG mice (Jackson Labs, Bar Harbor, Me.) to generate an orthometastatic MM xenograft model. […] Tumor status was assessed by BLI, and the results were analyzed by Living Image (PerkinElmer). Following treatment, the mice were continuously monitored for survival endpoints.

## COC(=O)C[C@](O)(CCCC(C)(C)O)C(=O)O[C@@H]1C(OC)=C[C@]23CCCN2CCc2cc4c(cc2[C@H]13)OCO4 [omacetaxine, Omacetaxine mepesuccinate]
c-MYC
  c-MYC protein level in MM cell lines: decreases
[1]
  cytotoxicity in relation to MCL1 priming (BH3 profiling) of primary samples: potent anti-myeloma activity in samples that were not MCL1 primed
[1]; 50 nM, 48 h, 50 patient samples
  patient samples with >50% reduction in viable MM cells (39/50): 78%
[1]; 50 nM, 48 h ex vivo
  cross-resistance in relapsed/refractory patients resistant to PI and IMiDs: did not show cross-resistance
[1]; Homo sapiens, 48 h, read-out: EC50 of decrease in MM cell viability ex vivo
  pEC50: 7.00 to 7.60
[2]
  cytotoxicity to normal plasma cells: cytotoxic
MM cell lines; H929 cells
  synergy with CC-220: synergistic
MM cell lines; MM.1S cells
  combination with dexamethasone: synergistic
MM cell lines; combination with lenalidomide, MM.1S cells, 96 h
  ZIP δ-score for synergy with Len: 13.89
MM cell lines; omacetaxine with pomalidomide, MM.1S cells, 96 h
  ZIP δ-score for synergy with Pom: 11.24
MM cell lines; three MM cell lines (U266, MM.1S, H929)
  synergy with the PI bortezomib: lack of synergy; also recorded: no significant enhanced activity
[3]
  protein translation rate in luc-MM1.S cells in vivo: dose-dependent decrease
